Data on eleven compounds can be found in PMC5228619 (Cell chemical biology, 2016).

For orientation: MIC means the smallest concentration in the dilution series that meets the test's criterion for growth inhibition.

Values after ≈ are worked out from the molar mass of the structure shown.

Assay [1] has as its system UCH MRSA 127 (dfrG). Briefly: MIC against clinical isolate UCH MRSA 127. It counts as cell-based, Staphylococcus aureus.
For assay [2], the system named is UCH MRSA 1 (dfrG). The assay can be described thus: MIC against clinical isolate UCH MRSA 1. Type of assay: cell-based, Staphylococcus aureus.
Assay [3] relates to UCH MSSA 1 (dfrG). The assay can be described thus: MIC against clinical isolate UCH MSSA 1. Type of assay: cell-based, Staphylococcus aureus.
For assay [4], the system named is UCH MRSA 115 (dfrA). Briefly: MIC against clinical isolate UCH MRSA 115. Type of assay: cell-based, Staphylococcus aureus.
In assay [5] the test system is UCH MRSA 121 (dfrG). Briefly: MIC against clinical isolate UCH MRSA 121. Type of assay: cell-based, Staphylococcus aureus.
Assay [6] relates to HH MRSA 1144 (dfrA). The assay can be described thus: MIC against clinical isolate HH MRSA 1144. It counts as cell-based, Staphylococcus aureus.
The subject of assay [7] is HH MRSA 714 (dfrG). Briefly: MIC against clinical isolate HH MRSA 714. Type of assay: cell-based. The conditions noted are these: Staphylococcus aureus.
The subject of assay [8] is S. aureus with dfrB point mutations. The conditions noted are these: point mutations in chromosomal dfrB, ref Dale et al., 1997, cited from earlier work.
In assay [9] the test system is multi-drug resistant MRSA ST398 (dfrK). The conditions noted are these: dfrK in swine MRSA ST398; ref Kadlec et al. 2010; cited from earlier work.
The test system of assay [10] is ATCC 43300 (Sa43300). Briefly: MIC against ATCC 43300. It counts as cell-based, Staphylococcus aureus.
In assay [11] the test system is HH MRSA 1184 (dfrK). Briefly: MIC against clinical isolate HH MRSA 1184. It counts as cell-based, Staphylococcus aureus.
Assay [12] has as its system TMP-resistant MRSA and MSSA clinical isolates. Briefly: MIC against panel of TMP-resistant clinical isolates. It counts as cell-based, Staphylococcus aureus.
Assay [13] has the same test system. The assay can be described thus: Clinical antibiotic susceptibility. It counts as cell-based, Staphylococcus aureus. The note with it: all strains; CLSI breakpoint standards.
Where [14] appears, read: Staphylococcus aureus, ATCC43300.
The mark [15] stands for this setting: UCH MRSA 127 (dfrG), SSTI isolate.
The mark [16] stands for this setting: UCH MSSA 1 (dfrG), sinus cavity isolate.
Setting [17] is: UCH MRSA 115 (dfrA), SSTI isolate.
Where [18] appears, read: UCH MRSA 121 (dfrG), sputum isolate.
The mark [19] stands for this setting: ATCC 43300, no TMP resistance gene.
Setting [20] is: HH MRSA 1144 (dfrA), SSTI isolate.
Where [21] appears, read: HH MRSA 1184 (dfrK), sputum isolate.

Take `Cc1cc(NS(=O)(=O)c2ccc(N)cc2)no1` [SMX, sulfamethoxazole, reference compound]: the MIC in assay [1] (Staphylococcus aureus, MRSA) is 16 µg/mL (≈ 63.2 µM); in [2] (Staphylococcus aureus, MRSA) it was above 500 µg/mL; in assay [3] (Staphylococcus aureus, MSSA), above 500 µg/mL; in assay [4] (Staphylococcus aureus, MRSA), 500 µg/mL (≈ 1970 µM); in [5] (Staphylococcus aureus, MRSA), above 500 µg/mL; in [6] (Staphylococcus aureus, MRSA), above 500 µg/mL. For the same compound, the minimal inhibitory concentration (MIC) in [7] is above 500 µg/mL.
`COc1cc(Cc2cnc(N)nc2N)cc(OC)c1OC` [TMP, trimethoprim, reference compound]: the minimal inhibitory concentration (MIC) in [8] (1990s) was 256 µg/mL (≈ 882 µM); in [1] (Staphylococcus aureus, MRSA), above 1000 µg/mL; in [2] (Staphylococcus aureus, MRSA), above 1000 µg/mL; in assay [3] (Staphylococcus aureus, MSSA) it was above 1000 µg/mL; in [4] (Staphylococcus aureus, MRSA), 250 µg/mL (≈ 861 µM); in assay [5] (Staphylococcus aureus, MRSA) it was above 1000 µg/mL. The MIC in [9] was 256 µg/mL (≈ 882 µM); in [10] (setting [14]) it was 0.312 µg/mL (≈ 1.08 µM); in assay [7] it was above 1000 µg/mL; in [11] (Staphylococcus aureus, MRSA), above 1000 µg/mL. In addition, in assay [8], the “Increase in MIC” value is ~ 800 fold.
`CCc1nc(N)nc(N)c1C#C[C@@H](C)c1cc(-c2ccc(C(=O)O)cc2)ccc1OC` [UCP1164]: the minimum inhibitory concentration (MIC) in [1] (setting [15]) amounted to 2.5 µg/mL (≈ 6 µM); in assay [2] (UCH MRSA 1 (dfrG), blood isolate) it was 2.5 µg/mL (≈ 6 µM); in assay [3] (setting [16]), 5 µg/mL (≈ 12 µM); in assay [4] (setting [17]), 10 µg/mL (≈ 24 µM); in assay [5] (setting [18]), 5 µg/mL (≈ 12 µM); in assay [10] (setting [19]), 0.0391 µg/mL (≈ 0.0939 µM). The MIC turned out to be 5 µg/mL (≈ 12 µM) in assay [6] (setting [20]) and 0.625 µg/mL (≈ 1.5 µM) in assay [11] (setting [21]).
For the compound `CCc1nc(N)nc(N)c1C#C[C@@H](C)c1cc(OC)cc(-c2ccc(C(=O)O)cc2)c1` [UCP1172], the MIC in assay [1] (setting [15]) is 0.3125 µg/mL (≈ 0.75 µM); in [4] (setting [17]) it was 5 µg/mL (≈ 12 µM); in assay [5] (setting [18]), 0.625 µg/mL (≈ 1.5 µM); in assay [10] (setting [19]) it was 0.0098 µg/mL (≈ 0.0235 µM); in [6] (setting [20]) it was 5 µg/mL (≈ 12 µM); in assay [11] (setting [21]) it was 0.3125 µg/mL (≈ 0.75 µM). For the same compound, the “MIC against strains possessing dfrA” value in assay [12] (dfrA-possessing strains) is on record as “does not significantly inhibit”.
As for `CCc1nc(N)nc(N)c1C#CC(C)c1cc2c(c(-c3ccc(C(=O)O)cc3)c1)OCO2` (stereo not shown) [UCP1191], the minimum inhibitory concentration (MIC) worked out at 0.1563 µg/mL (≈ 0.363 µM) in assay [1] (setting [15]); 0.3125 µg/mL (≈ 0.726 µM) in [3] (setting [16]); 20 µg/mL (≈ 46.5 µM) in assay [4] (setting [17]); 0.625 µg/mL (≈ 1.45 µM) in [5] (setting [18]); 10 µg/mL (≈ 23.2 µM) in assay [6] (setting [20]); 0.1563 µg/mL (≈ 0.363 µM) in assay [11] (setting [21]). For the same compound, the “MIC against strains carrying dfrG and dfrK” value in [12] (dfrG- and dfrK-possessing strains) is recorded as 0.1563−0.625 μg/mL.
Consider `CCc1nc(N)nc(N)c1C#C[C@@H](C)c1cc2c(c(-c3ccc(C(=O)O)cc3)c1)OCO2` [UCP1205, (S)-4-(6-(4-(2,4-diamino-6-ethylpyrimidin-5-yl)but-3-yn-2-yl)benzo[d][1,3]dioxol-4-yl)benzoic acid], for which the MIC is 0.312 µg/mL (≈ 0.726 µM) in [1] (Staphylococcus aureus, MRSA); 0.625 µg/mL (≈ 1.45 µM) in assay [2] (Staphylococcus aureus, MRSA); 0.312 µg/mL (≈ 0.726 µM) in [3] (Staphylococcus aureus, MSSA); above 10 µg/mL in [4] (Staphylococcus aureus, MRSA); 0.625 µg/mL (≈ 1.45 µM) in [5] (Staphylococcus aureus, MRSA); above 10 µg/mL in [6] (Staphylococcus aureus, MRSA). In addition, the minimal inhibitory concentration (MIC) stood at 0.625 µg/mL (≈ 1.45 µM) in assay [7] and 0.312 µg/mL (≈ 0.726 µM) in assay [11] (Staphylococcus aureus, MRSA).
In the case of `CCc1nc(N)nc(N)c1C#C[C@H](C)c1cc2c(c(-c3ccc(C(=O)O)cc3)c1)OCO2` [UCP1206, (R)-4-(6-(4-(2,4-diamino-6-ethylpyrimidin-5-yl)but-3-yn-2-yl)benzo[d][1,3]dioxol-4-yl)benzoic acid], the minimum inhibitory concentration (MIC) in [1] (Staphylococcus aureus, MRSA) was 1.25 µg/mL (≈ 2.9 µM); in assay [2] (Staphylococcus aureus, MRSA), 2.5 µg/mL (≈ 5.81 µM); in assay [3] (Staphylococcus aureus, MSSA), 1.25 µg/mL (≈ 2.9 µM); in [4] (Staphylococcus aureus, MRSA), above 10 µg/mL; in assay [5] (Staphylococcus aureus, MRSA), 2.5 µg/mL (≈ 5.81 µM); in assay [10] (setting [14]) it was 0.0098 µg/mL (≈ 0.0228 µM). Also, the minimum inhibitory concentration (MIC) is above 10 µg/mL in [6] (Staphylococcus aureus, MRSA); 2.5 µg/mL (≈ 5.81 µM) in assay [7]; 1.25 µg/mL (≈ 2.9 µM) in assay [11] (Staphylococcus aureus, MRSA).
As to `CCCCCCCCCC(=O)N[C@@H](Cc1c[nH]c2ccccc12)C(=O)N[C@H](CC(N)=O)C(=O)N[C@@H](CC(=O)O)C(=O)N[C@@H]1C(=O)NCC(=O)N[C@@H](CCCN)C(=O)N[C@@H](CC(=O)O)C(=O)N[C@H](C)C(=O)N[C@@H](CC(=O)O)C(=O)NCC(=O)N[C@H](CO)C(=O)N[C@@H]([C@H](C)CC(=O)O)C(=O)N[C@@H](CC(=O)c2ccccc2N)C(=O)O[C@@H]1C` [daptomycin], in [13], the “Susceptibility based on breakpoint MICs” value is “susceptible”.
In the case of `CC(=O)NC[C@H]1CN(c2ccc(N3CCOCC3)c(F)c2)C(=O)O1` [linezolid], in assay [13], the “Susceptibility based on breakpoint MICs” value is “susceptible”.
Still for that read-out and setting: next, `CO[C@H]1/C=C/O[C@@]2(C)Oc3c(C)c(O)c4c(O)c(c(/C=N/N5CCN(C)CC5)c(O)c4c3C2=O)NC(=O)/C(C)=C\C=C\[C@H](C)[C@H](O)[C@@H](C)[C@@H](O)[C@@H](C)[C@H](OC(C)=O)[C@@H]1C` [rifampin]: “susceptible”; `CN[C@H](CC(C)C)C(=O)N[C@H]1C(=O)N[C@@H](CC(N)=O)C(=O)N[C@H]2C(=O)N[C@H]3C(=O)N[C@H](C(=O)N[C@H](C(=O)O)c4cc(O)cc(O)c4-c4cc3ccc4O)[C@H](O)c3ccc(c(Cl)c3)Oc3cc2cc(c3O[C@@H]2O[C@H](CO)[C@@H](O)[C@H](O)[C@H]2O[C@H]2C[C@](C)(N)[C@H](O)[C@H](C)O2)Oc2ccc(cc2Cl)[C@H]1O` [vancomycin]: “susceptible”.
